Data from PMC12195250, “Synthesis, Biological Evaluation, Molecular Dynamics, and QM-MM Calculation of Spiro-Acridine Derivatives Against Leishmaniasis” (Microorganisms, 2025).
Entries after “also recorded” stand apart in the source; their conditions may differ. Where two headings read alike, the source gives them in different places.

Key:
[1] = tested on: L. infantum promastigotes (Strain MHOM/BR/70/BH46); experiment: Anti-promastigote effect, Neubauer chamber counting; type: cell-based, Leishmania infantum; settings: 72 h incubation, read-out: L. infantum IC50PRO
Method: (§1) The promastigote cultures of L. infantum (Strain MHOM/BR/70/BH46) and L. amazonensis (Strain MHOM/BR/PH8) were kept in Schneider medium (Sigma-Aldrich, St. Louis, MO, USA) supplemented with 20% fetal bovine serum (FBS) and 1% streptomycin/penicillin in a B.O.D. incubator (J. Prolab, model JP. 100 LBCM/CPAM) at 26 °C. The promastigote strains were used in the exponential growth phase in all stages for experimental purposes.
(§2) The Neubauer chamber method was used to assess the inhibitory concentrations of the synthesized spiro-acridines capable of eliminating 50% of the promastigotes in cultures of L. amazonensis and L. infantum (IC50) strains. Promastigotes from both species were collected, counted, and diluted in Schneider’s medium (Sigma-Aldrich, St. Louis, MO, USA) supplemented with 20% fetal bovine serum (FBS) at a final concentration of 1 × 10^6 cells/mL. The evaluated promastigotes were then exposed to different concentrations of the tested compounds (10, 5, 2.5, 1.25, and 0.625 μg/mL). The positive control used the commercial drug Amphotericin B®, while the negative control consisted of promastigotes incubated in Schneider’s medium alone. After 72 h of incubation at 25 °C, culture growth was observed by counting the viable cells using a Neubauer chamber and calculated using the following Equation (1): No. Leishmania/mL = No. of cells counted × No. of Neubauer chamber(1) quadrants × the dilution used × 10^4 (Neubauer chamber correction factor)
(§3) The concentration parameter that inhibits 50% of parasite growth (IC50) was used to estimate the growth inhibition of the promastigote species of Leishmania sp. Thus, IC50 was determined by linear regression analysis with SPSS 8.0 software for Windows. Each test was performed in two independent experiments, with different cultures and in technical triplicate.

[2] = tested on: L. amazonensis promastigotes (Strain MHOM/BR/PH8); experiment: as above; type: cell-based, Leishmania amazonensis; settings: 72 h incubation, read-out: L. amazonensis IC50PRO
Method: as §1, §2, §3

[3] = tested on: L. amazonensis axenic amastigotes; experiment: Anti-amastigote effect on axenic amastigotes, MTT; type: cell-based, Leishmania amazonensis; settings: L. amazonensis axenic amastigotes, 24 h, MTT
Method: The amastigote forms of L. amazonensis were maintained under cryopreservation until they were transferred to an NNN medium (Novy–MacNeal–Nicolle) and incubated at 26 °C until the parasites reached the log growth phase. Subsequently, the suspension was transferred to Schneider culture medium (Sigma-Aldrich, St. Louis, MO, USA), supplemented with 20% inactivated fetal bovine serum and 0.2% gentamicin sulfate at 26 °C, causing the parasites to return to the log growth phase. The cultures were then maintained at 37 °C, producing a growth curve and the formation of the axenic amastigote strains.
The concentrations of the compounds AMTAC-02 and ACMD-03 capable of eliminating 50% of the cells in the cultures of L. amazonensis amastigotes (IC50) were determined using the MTT [3-(4,5-dimethylthiazol-2-yl)-2,5-diphenyltetrazolium bromide] (Sigma-Aldrich) reagent. In a 96-well plate, the assay was initiated by diluting both compounds to concentrations of 2, 4, 8, 16, and 32 μg/mL and 2.0 × 10^5 axenic amastigotes per well. The plates were incubated at 37 °C for 24 h. Then, 10 μL of MTT was added per well, and the cultures were re-incubated for 4 h. Subsequently, 50 μL of dimethyl sulfoxide was added to each well to solubilize the formazan crystals formed. The absorbances were measured using a SpectraMAX GeminiXS plate spectrophotometer (Molecular Devices LLC) at a wavelength of 570 nm. The negative control consisted of untreated cells, while the positive control was assessed by incubating the axenic amastigotes with the reference drug Amphotericin B® [13].

[4] = tested on: human red blood peripheral cells (O+); experiment: Hemocompatibility (hemolysis) in red blood cells; type: cell-based; settings: 1 h at 37 °C
Method: The hemocompatibility of the spiro-acridine derivatives was determined using human red blood peripheral cells (O+) from healthy adults. The erythrocytes were diluted in phosphate-buffered saline (PBS) to a concentration of 5% in an 80 µL suspension and subsequently incubated with 20 µL of different concentrations of spiro-acridine derivatives and Amphotericin B® (400, 200, 100, 50, 25, 12,5, 6,25 and 3,12 μg/mL). Afterward, the samples were incubated for 1 h at 37 °C in a B.O.D incubator, and the reaction was stopped by adding 200 μL of PBS (1.5 mM KH2PO4, 8.1 mM Na2HPO4, 136.9 mM NaCl, and 2.6 mM KCl, pH 7.2). The samples were centrifuged at 2000 rpm for 10 min, at room temperature. The supernatants were collected and subjected to spectrophotometry using a spectrophotometer (model Biosystems ELx800, Curitiba, PR, Brazil) at 540 nm. The hemolysis percentage was determined as [(Abssam − Abscon)/(Abstot − Abscon) × 100], where Abssam refers to the absorbance of the sample, Abscon to the absorbance of the blank control (without compounds), and Abstot to the absorbance of total hemolysis (obtained by replacing the sample solution with an equal volume of Milli-Q water). The results were expressed as average hemolytic concentration (HC50), considering the positive control as 100% hemolysis.

[5] = tested on: macrophages infected with L. amazonensis; experiment: Reactive oxygen and nitrogen species (DCF-DA, DAF-FM diacetate); type: cell-based; settings: 24 h; for expression of ROS: 2, 4 and 8 µg/mL, DCF-DA, compared to basal macrophage
Text: The assay for the quantification of reactive oxygen species (ROS) and reactive nitrogen species (RNS) was executed using, respectively, the probe 2′,7′-dichlorodihydrofluorescein diacetate (DCF-DA) and 4-amino-5-methylamino-2′,7′-difluorofluorescein diacetate (DAF-FM diacetate), which produce 2–7-dichlorofluorescein (DCF) and 4-amino-5-methylamino-2′,7′-difluorofluorescein (DAF-FM) in the presence of the respective reactive species. Therefore, initially, macrophages were adhered to and infected with L. amazonensis in a plate, followed by the treatment with AMTAC-02 or ACMD-03 at concentrations of 2, 4, and 8 μg/mL. Subsequently, following a 24-h treatment period, the plates were incubated for 30 min with the DCF-DA probe diluted in saline (pH 7.2) and for 1 h with the DAF-FM diacetate probe diluted in saline (pH 7.2), respectively, in a humid chamber at 37 °C with 5% CO2, protected from light. The cells were washed twice with saline (pH 7.2) at room temperature and then resuspended in 200 µL of saline under the same conditions. The negative control comprised uninfected and untreated macrophages, while the positive control comprised untreated macrophages infected with L. amazonensis. Afterward, the fluorescence intensity in each sample was captured using the BD LRS II FORTESSA flow cytometer and the DIVA program version 7 (BD Bioscience). The mean fluorescence intensity (MFI) was then obtained by processing the data in FlowJoTM version 10.6.1. The experiment was performed in triplicate, and the results were calculated as the difference in MFI in each group.

IC50 ([1]; Leishmania infantum) [µM]	IC50 ([2]; Leishmania amazonensis) [µM]	IC50 ([3]; Leishmania amazonensis) [µM]	Structure (SMILES)	IC50 [1] [µM]	IC50 [2] [µM]	IC50 [3] [µM]	HC50 (concentration capable of promoting 50% hemolysis) [4] [µM]	expression of ROS [5]	expression of RNS ([5]; DAF-FM diacetate, versus infected macrophage)
			N#CC1=CC2(c3ccccc3Nc3ccccc32)N(c2ccc(Cl)cc2)C1=O [ACMD-03, (E)1′-(4-chlorophenyl)-5′-oxo-1′, 5′-dihydro-10H-spiro{acridine-9,2′-pyrrole]-4′-carbonitrile]	7.82	11	10.5	>400	significantly increased ROS expression	intensified RNS expression; also recorded: significantly increased (* p < 0.05) RNS at a concentration of 2 µg/mL
2.22	0.73	10.5 to 13.5	COc1ccc(/C=N/N2C(=O)C(C#N)=CC23c2ccccc2Nc2ccccc23)cc1 [AMTAC-02, (E)-1′-((4-methoxybenzylidene)amino)-5′-oxo-1′,5′-dihydro-10H-spiro[acridine-9,2′-pyrrole]-4′-carbonitrile]			13.5	>400	significantly increased ROS expression	
